One assay relates to Jurkat cells. Kind of assay: MTT cell viability assay, in vitro cytotoxicity in CD22- Jurkat cells. Type of assay: cell-based. The conditions noted are these: Homo sapiens. The procedure: FIG. 14A is a graph showing the in vitro cytotoxicity of targeted, drug-loaded liposomes (solid line, “CD22 Targeted NP”) and untargeted, drug-loaded liposomes (dotted line, “Untargeted NP”) in Jurkat cells after 24 hours. The Jurkat cells lack the cell surface antigen (CD22) to which the antibody of the targeted liposomes binds. For comparison, the in vitro cytotoxic effects of free (solution) drug (N-benzyladriamycin-14-valerate (AD198)) are also shown (dashed line, “Solution Drug”). Cytotoxicity is expressed as percentage (%) cell kill as measured via (3-(4,5-dimethylthiazol-2-yl)-2,5-diphenyltetrazolium bromide (MTT) cell viability assay. The data represents the average of three measurements; the error bars represent±standard deviation.
FIG. 15A is a graph showing the in vitro cytotoxicity of targeted, drug-loaded liposomes (solid line, “CD22 Targeted NP”) and untargeted, drug-loaded liposomes (dotted line, “Untargeted NP”) in Jurkat cells after 48 hours. […] Cytotoxicity is expressed as percentage (%) cell kill as measured via (3-(4,5-dimethylthiazol-2-yl)-2,5-diphenyltetrazolium bromide (MTT) assay. The data represents the average of three measurements; the error bars represent±standard deviation.
In vitro efficacy of the liposomes was also studied using the MTT assay to assess cell viability. […] IC50 concentrations were also calculated for the solution drug and the targeted liposome. […]
(In general: Tetrazolium dyes change colour on reduction, which living cells bring about.)

Another assay concerns Daudi cells. As to the kind of experiment: MTT cell viability assay, in vitro cytotoxicity in CD22+ Daudi cells. The format is cell-based. The conditions noted are these: Homo sapiens. The procedure: FIG. 14B is a graph showing the in vitro cytotoxicity of targeted, drug-loaded liposomes (solid line, “CD22 Targeted NP”) and untargeted, drug-loaded liposomes (dotted line, “Untargeted NP”) in Daudi cells after 24 hours. The Daudi cells have the cell surface antigen (CD22) to which the antibody of the targeted liposomes binds. For comparison, the in vitro cytotoxic effects of free (solution) drug (N-benzyladriamycin-14-valerate (AD198)) are also shown (dashed line, “Solution Drug”). Cytotoxicity is expressed as percentage (%) cell kill as measured via (3-(4,5-dimethylthiazol-2-yl)-2,5-diphenyltetrazolium bromide (MIT) cell viability assay. The data represents the average of three measurements; the error bars represent±standard deviation.
FIG. 15B is a graph showing the in vitro cytotoxicity of targeted, drug-loaded liposomes (solid line, “CD22 Targeted NP”) and untargeted, drug-loaded liposomes (dotted line, “Untargeted NP”) in Daudi cells after 48 hours. The Daudi cells have the cell surface antigen (CD22) to which the antibody of the targeted liposomes binds. […] Cytotoxicity is expressed as percentage (%) cell kill as measured via (3-(4,5-dimethylthiazol-2-yl)-2,5-diphenyltetrazolium bromide (MTT) cell viability assay. The data represents the average of three measurements; the error bars represent±standard deviation. […]

One may read the IC50 as the concentration that gives 50% inhibition. Read a low IC50 as greater potency in that assay. Consider `CCCCC(=O)OCC(=O)[C@]1(O)Cc2c(O)c3c(c(O)c2[C@@H](O[C@H]2C[C@H](NCc4ccccc4)[C@H](O)[C@H](C)O2)C1)C(=O)c1c(OC)cccc1C3=O` [AD198, N-benzyladriamycin-14-valerate], for which the IC50 came to 1050 nM with Jurkat cells (Jurkat cells (CD22-), 24 hours); 100 nM with Jurkat cells (Jurkat cells, 48 hours); 250 nM in the assay with Daudi cells (Daudi cells (CD22+), 24 hours); 100 nM in the assay with Daudi cells (Daudi cells, 48 hours).
